Measured values taken from paper PMC4452589, “An evaluation of the brain distribution of [^11C]GSK1034702, a muscarinic-1 (M1) positive allosteric modulator in the living human brain using positron emission tomography” (EJNMMI Research, 2014).
Read-outs that look alike come from different tables or passages of the source. Each block holds one compound with its values, some of them ahead of it.

Experiment: [11C]GSK1034702 PET brain distribution and kinetics in anaesthetised baboons
Type: in vivo, Papio anubis
Conditions: for Kp: baboon (Papio anubis), intravenous
Procedure: The brain distribution of carbon-11-labelled GSK1034702 ([^11C]GSK1034702) was conducted in two anaesthetised baboons (P. anubis), to assess its transport across the BBB. These studies were conducted at Columbia University Medical Center, New York. The study was approved by the Columbia University Institutional Animal Care and Use Committee (IACUC).
Two adult baboons were studied over a 6-week period. Subject A (an ovariectomised female) received two injections of [^11C]GSK1034702 22 days apart, while subject B (male) received a single injection of [^11C]GSK1034702. Each experimental session included a single dynamic PET scan.
Fasted animals were immobilised with intramuscular ketamine injection (10 mg/kg), and anesthetised with 1.8% isoflurane via an endotracheal tube. Vital signs were monitored every 10 min and the temperature was kept constant at 37°C with heated water blankets. An intravenous (IV) perfusion line was used for hydration and injection of the radiotracer. A catheter was inserted in a femoral artery for arterial blood sampling. The head was positioned at the centre of the field of view. PET imaging was performed with the ECAT EXACT HR + PET scanner (Siemens/CTI, Knoxville, TN) operating in 3D mode (in-plane resolution of 4.3, 4.5, 5.4 and 8.0 mm, full width at half maximum (FWHM) at a distance of 0, 1, 10 and 20 cm from the centre of the field of view). A 15-min transmission scan was obtained prior to radiotracer injection for attenuation correction. […] Following IV administration (45-s bolus) of a single dose of [^11C]GSK1034702 dynamic PET, arterial blood and metabolite data were acquired for 120 min (subject A) for the first two scans and only 60 min for the third scan due to a technical issue (subject B).
Regions of interest (ROIs) were drawn on previously acquired T1-weighted anatomical magnetic resonance imaging (MRI) brain images for each animal. The following regions were defined: cerebellum, hippocampus, thalamus, striatum, frontal cortex and occipital cortex. Regions were drawn in the MEDx (Sensor Systems Inc., Sterling, VA, USA) software environment. PET emission data were attenuation-corrected using the transmission scan, and frames were reconstructed using a Shepp filter (cutoff 0.5 cycles/projection rays). Decay-corrected PET images were registered to the MRI images by maximisation of mutual information using SPM2 and Matlab software. Regional boundaries were transferred from the MRI to the individual registered PET frames, and time-activity curves were measured in the MEDx environment. Right and left regions were averaged. For a given animal, the same regions were used for all scans.
Brain time activity curves (TACs) were corrected for the contribution of blood activity assuming a 5% blood volume. A metabolite-corrected arterial input function and regional TACs were fitted to a compartmental model to derive regional VT estimates as well as a whole brain VT.

[1] = both sexes, whole brain, Papio anubis, mean ± SD of three scans, two-tissue compartmental model, read-out: whole brain VT

Kp (both sexes, cortex, primate, as worded, read-out: VT measured in the primate cortex): 4
Kp [1]: 3.97
Compound: Cc1cc(F)c2[nH]c(=O)n(C3CCN(C4CCOCC4)CC3)c2c1 [GSK1034702]

Regional K1 (Cerebellum, Subject A Exam 1, baboon): 0.46 mL.cm^-3.min^-1
Regional K1 (Cerebellum, Subject A Exam 2, baboon): 0.57 mL.cm^-3.min^-1
Regional K1 (Cerebellum, Subject B Exam 1, baboon): 0.35 mL.cm^-3.min^-1
Regional K1 (Frontal Ctx, Subject A Exam 1, baboon): 0.39 mL.cm^-3.min^-1
Regional K1 (Frontal Ctx, Subject A Exam 2, baboon): 0.53 mL.cm^-3.min^-1
Regional K1 (Frontal Ctx, Subject B Exam 1, baboon): 0.32 mL.cm^-3.min^-1
Regional K1 (Hippocampus, Subject A Exam 1, baboon): 0.39 mL.cm^-3.min^-1
Regional K1 (Hippocampus, Subject A Exam 2, baboon): 0.60 mL.cm^-3.min^-1
Regional K1 (Hippocampus, Subject B Exam 1, baboon): 0.32 mL.cm^-3.min^-1
Regional K1 (Occipital Ctx, Subject A Exam 1, baboon): 0.67 mL.cm^-3.min^-1
Regional K1 (Occipital Ctx, Subject A Exam 2, baboon): 0.53 mL.cm^-3.min^-1
Regional K1 (Occipital Ctx, Subject B Exam 1, baboon): 0.37 mL.cm^-3.min^-1
whole brain VT (Papio anubis, mean ± SD of three scans, two-tissue compartmental model): 3.97 ± 0.38 mL.cm^−3
Regional K1 (Striatum, Subject A Exam 1, baboon): 0.39 mL.cm^-3.min^-1
Regional K1 (Striatum, Subject A Exam 2, baboon): 0.51 mL.cm^-3.min^-1
Regional K1 (Striatum, Subject B Exam 1, baboon): 0.39 mL.cm^-3.min^-1
Regional K1 (Thalamus, Subject A Exam 1, baboon): 0.44 mL.cm^-3.min^-1
Regional K1 (Thalamus, Subject A Exam 2, baboon): 0.52 mL.cm^-3.min^-1
Regional K1 (Thalamus, Subject B Exam 1, baboon): 0.27 mL.cm^-3.min^-1
Regional K1 (Whole Brain, Subject A Exam 1, baboon): 0.45 mL.cm^-3.min^-1
Regional K1 (Whole Brain, Subject A Exam 2, baboon): 0.50 mL.cm^-3.min^-1
Regional K1 (Whole Brain, Subject B Exam 1, baboon): 0.35 mL.cm^-3.min^-1
Kp [1]: 3.97
Kp (female, cerebellum, Cerebellum, Subject A Exam 1, baboon, read-out: Regional V T): 4.07
Kp (female, cerebellum, Cerebellum, Subject A Exam 2, baboon, read-out: Regional V T): 3.79
Kp (female, frontal cortex, Frontal Ctx, Subject A Exam 1, baboon, read-out: Regional V T): 3.92
Kp (female, frontal cortex, Frontal Ctx, Subject A Exam 2, baboon, read-out: Regional V T): 3.73
Kp (female, hippocampus, Hippocampus, Subject A Exam 1, baboon, read-out: Regional V T): 4.78
Kp (female, hippocampus, Hippocampus, Subject A Exam 2, baboon, read-out: Regional V T): 4.62
Kp (female, occipital cortex, Occipital Ctx, Subject A Exam 1, baboon, read-out: Regional V T): 4.49
Kp (female, occipital cortex, Occipital Ctx, Subject A Exam 2, baboon, read-out: Regional V T): 4.64
Kp (female, striatum, Striatum, Subject A Exam 1, baboon, read-out: Regional V T): 3.86
Kp (female, striatum, Striatum, Subject A Exam 2, baboon, read-out: Regional V T): 3.95
Kp (female, thalamus, Thalamus, Subject A Exam 1, baboon, read-out: Regional V T): 4.06
Kp (female, thalamus, Thalamus, Subject A Exam 2, baboon, read-out: Regional V T): 3.91
Kp (female, whole brain, Whole brain, Subject A Exam 1, baboon, read-out: Regional V T): 4.2
Kp (female, whole brain, Whole brain, Subject A Exam 2, baboon, read-out: Regional V T): 4.19
Kp (male, cerebellum, Cerebellum, Subject B Exam 1, baboon, read-out: Regional V T): 3.09
Kp (male, frontal cortex, Frontal Ctx, Subject B Exam 1, baboon, read-out: Regional V T): 3.52
Kp (male, hippocampus, Hippocampus, Subject B Exam 1, baboon, read-out: Regional V T): 3.52
Kp (male, occipital cortex, Occipital Ctx, Subject B Exam 1, baboon, read-out: Regional V T): 3.89
Kp (male, striatum, Striatum, Subject B Exam 1, baboon, read-out: Regional V T): 3.21
Kp (male, thalamus, Thalamus, Subject B Exam 1, baboon, read-out: Regional V T): 2.75
Kp (male, whole brain, Whole brain, Subject B Exam 1, baboon, read-out: Regional V T): 3.52
Compound: [11CH3]c1cc(F)c2[nH]c(=O)n(C3CCN(C4CCOCC4)CC3)c2c1 [[^11C]GSK1034702]
